Earlier results on two molecules are cited in patent US20170258815A1, “CORTICOSTEROID FORMULATIONS AND METHODS FOR THE TREATMENT OF JOINT PAIN IN PATIENTS WITH DIABETES” (Flexion Therapeutics, Inc., priority 2016, published 2017).

This data set concerns patients with controlled DM and OA of the knee.

With `CC1(C)O[C@@H]2C[C@H]3[C@@H]4CCC5=CC(=O)C=C[C@]5(C)[C@@]4(F)[C@@H](O)C[C@]3(C)[C@]2(C(=O)CO)O1` [TCA, Triamcinolone acetonide], the “Levels of blood glucose after IA injection compared with IA hyaluronic acid” value is reported as “significantly increased levels of blood glucose”.
With `CC(C)(C)CC(=O)OCC(=O)[C@@]12OC(C)(C)O[C@@H]1C[C@H]1[C@@H]3CCC4=CC(=O)C=C[C@]4(C)[C@@]3(F)[C@@H](O)C[C@@]12C` [triamcinolone hexacetonide], the “Levels of blood glucose after IA injection compared with IA hyaluronic acid” value is reported as “significantly increased levels of blood glucose”.
